Results from ChEMBL document CHEMBL4364263, “Synthesis and biological evaluation of 2,4,5-trisubstituted thiazoles as antituberculosis agents effective against drug-resistant tuberculosis” (Eur J Med Chem, 2019).
In brackets after ≈: the same amount, converted by molar mass.

Experiments:
Format in all cases: functional
[1] = system: Mycobacterium tuberculosis; assay: Antitubercular activity against isoniazid, streptomycin, ethionamide and ethambutol resistant Mycobacterium tuberculosis isolate 1 assessed as growth inhibition
[2] = system: Mycobacterium tuberculosis; assay: Antitubercular activity against isoniazid and ethionamide resistant Mycobacterium tuberculosis isolate 2 assessed as growth inhibition
[3] = system: Mycobacterium tuberculosis; assay: Antitubercular activity against isoniazid, streptomycin and rifampicin resistant Mycobacterium tuberculosis isolate 3 assessed as growth inhibition
[4] = system: Mycobacterium tuberculosis; assay: Antitubercular activity against isoniazid and rifampicin resistant Mycobacterium tuberculosis isolate 4 assessed as growth inhibition
[5] = system: Mycobacterium tuberculosis; assay: Antitubercular activity against isoniazid and ethionamide resistant Mycobacterium tuberculosis isolate 5 assessed as growth inhibition
[6] = system: Mycobacterium tuberculosis; assay: Antitubercular activity against isoniazid, streptomycin and ethionamide resistant Mycobacterium tuberculosis isolate 6 assessed as growth inhibition
[7] = system: Mycobacterium tuberculosis; assay: Antitubercular activity against isoniazid, streptomycin, ethionamide, ethambutol and rifampicin resistant Mycobacterium tuberculosis isolate 7 assessed as growth inhibition
[8] = system: Mycobacterium tuberculosis; assay: Antitubercular activity against isoniazid, streptomycin, ethionamide, ethambutol, rifampicin and ofloxacin resistant Mycobacterium tuberculosis isolate 8 assessed as growth inhibition

Structure (SMILES): CCOC(=O)c1nc(C2CCCCC2)sc1-c1ccc(C#N)cc1
- MIC [1]: 8 µg/mL (≈ 23.5 µM)
- MIC [2]: 8 µg/mL (≈ 23.5 µM)
- MIC [3]: 16 µg/mL (≈ 47 µM)
- MIC [4]: 4 µg/mL (≈ 11.7 µM)
- MIC [5]: 8 µg/mL (≈ 23.5 µM)
- MIC [6]: 8 µg/mL (≈ 23.5 µM)
- MIC [7]: 16 µg/mL (≈ 47 µM)
- MIC [8]: > 32 µg/mL
